ChEMBL document CHEMBL1201862, “PubChem BioAssay data set” (2004)
The source made the active and inactive calls.

Columns and labels:
[1] = luciferase reporter signal suppression in cells – H4 neuroglioma cells, luminescence, dose response (AID 1990); type: functional, cell-based
[2] = Luminescence Cell-Based Dose Response HTS to Identify Inhibitors of 5'UTR Stem-Loop Driven Prion Protein mRNA Translation in H4 Neuroglioblastoma Cells. [Related pubchem assays: 1827 (Project Summary), 1813 (Primary HTS)]; type: functional
[3] = alpha-synuclein stem-loop luciferase translation blockers – H4 neuroglioma cells, luminescence, confirmation (AID 1988); type: functional, cell-based
[4] = target: Type-1 angiotensin II receptor (Homo sapiens, UniProt P30556); assay: agonist activity at AGTR1 – cell-based, uHTS hits, selectivity assay for APJ receptor agonist project, dose response (AID 488865); type: functional;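 also: beta-arrestin recruitment to AT1 measured by enzyme fragment complementation luminescence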
[5] = target: DNA dC->dU-editing enzyme APOBEC-3A (Homo sapiens, UniProt P31941); assay: A3A deaminase inhibition for selectivity – biochemical, dose response (AID 504722); type: functional
[6] = target: Glucose-6-phosphate 1-dehydrogenase (Homo sapiens, UniProt P11413); assay: inhibition of Homo sapiens G6PD, dose series – biochemical, fluorescence, selectivity assay for P. falciparum G6PD inhibitor project, dose response (AID 504792); type: functional
Phosphomannomutase 2 = Phosphomannomutase 2 (Homo sapiens, UniProt O15305); assay: Counter screen SAR assay for PMM2 inhibitors via a fluorescence intensity assay. [Related pubchem assays (depositor defined):AID1545, AID1574]
[7] = target: Phosphoethanolamine/phosphocholine phosphatase (Homo sapiens, UniProt Q8TCT1); assay: SAR assay for compounds that inhibit PHOSPHO1. [Related pubchem assays (depositor defined):AID1545, AID1565, AID1574]
[8] = target: DNA dC->dU-editing enzyme APOBEC-3G (Homo sapiens, UniProt Q9HC16); assay: Dose Response confirmation of small molecule APOBEC3G DNA Deaminase Inhibitors via a fluorescence-based single-stranded DNA deaminase assay. [Related pubchem assays (depositor defined):AID493012, AID493028]; type: functional
T-cell = assay: loss of vesicle association with mouse CD8+ T cells – mouse 2C CD8+ T cells, flow cytometry, dose response (AID 485284); type: functional
[9] = target: T1, Alkaline phosphatase, tissue-nonspecific isozyme (Homo sapiens, UniProt P05186); assay: potency against alkaline phosphatase TNAP – biochemical, luminescent, dose response, SAR follow-up (AID 1056)
T1 sequence (P05186 whole entry): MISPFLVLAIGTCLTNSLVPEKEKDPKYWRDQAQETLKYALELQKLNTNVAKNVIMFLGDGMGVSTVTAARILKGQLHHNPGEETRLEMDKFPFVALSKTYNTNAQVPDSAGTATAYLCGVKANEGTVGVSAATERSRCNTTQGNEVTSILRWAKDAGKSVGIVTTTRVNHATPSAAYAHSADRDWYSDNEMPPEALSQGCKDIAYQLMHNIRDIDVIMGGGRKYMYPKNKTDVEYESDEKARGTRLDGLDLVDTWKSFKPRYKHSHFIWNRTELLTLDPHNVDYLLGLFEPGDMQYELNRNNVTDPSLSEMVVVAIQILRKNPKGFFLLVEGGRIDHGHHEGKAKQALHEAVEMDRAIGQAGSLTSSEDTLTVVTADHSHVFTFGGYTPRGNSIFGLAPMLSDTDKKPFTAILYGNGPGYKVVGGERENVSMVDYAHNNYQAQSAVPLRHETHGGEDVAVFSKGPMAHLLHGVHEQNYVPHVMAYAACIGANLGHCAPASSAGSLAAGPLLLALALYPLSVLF

[10] = viability loss in HeLa cells – cytotoxicity control for MgcRacGAP inhibitor project, dose response (AID 624300); type: functional
[11] = target: T2, Rac GTPase-activating protein 1 (Homo sapiens, UniProt Q9H0H5); assay: blockers of MgcRacGAP-driven Rac1 GTP hydrolysis – biochemical, ADP Hunter fluorescence, primary and confirmatory, confirmation (AID 624330); type: functional
T2 sequence (Q9H0H5 whole entry): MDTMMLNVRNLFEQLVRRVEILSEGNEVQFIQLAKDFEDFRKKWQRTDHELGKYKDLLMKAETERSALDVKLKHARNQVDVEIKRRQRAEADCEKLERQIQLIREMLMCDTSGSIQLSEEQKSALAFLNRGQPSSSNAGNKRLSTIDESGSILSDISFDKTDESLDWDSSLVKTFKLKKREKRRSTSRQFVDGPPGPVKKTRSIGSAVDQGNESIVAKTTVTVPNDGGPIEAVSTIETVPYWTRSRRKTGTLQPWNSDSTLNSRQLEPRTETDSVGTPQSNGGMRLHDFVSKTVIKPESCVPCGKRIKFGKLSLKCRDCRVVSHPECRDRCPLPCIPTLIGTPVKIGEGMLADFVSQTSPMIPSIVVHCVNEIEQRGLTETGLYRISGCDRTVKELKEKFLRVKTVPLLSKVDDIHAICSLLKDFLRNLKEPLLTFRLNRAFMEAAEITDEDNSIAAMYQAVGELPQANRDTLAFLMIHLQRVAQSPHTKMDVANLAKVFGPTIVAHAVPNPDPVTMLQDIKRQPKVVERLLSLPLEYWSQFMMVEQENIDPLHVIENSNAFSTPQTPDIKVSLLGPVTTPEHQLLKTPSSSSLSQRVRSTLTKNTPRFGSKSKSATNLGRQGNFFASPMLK

Hexokinase = Hexokinase (Trypanosoma brucei, UniProt Q38C41); assay: Confirmation assay for inhibitors of Trypanosoma brucei hexokinase 1-Analogue-first series. [Related pubchem assays (depositor defined):AID1430, AID1632, AID2516, AID2560, AID2579, AID2600, AID449725, AID492951]; type: functional
[12] = target: Sphingosine 1-phosphate receptor 4 (Homo sapiens, UniProt O95977); assay: potency of S1P4 activators – cell-based, fluorescence, synthesized compounds, late-stage follow-up (AID 463107); type: functional
[13] = target: T3, G-protein coupled receptor 55 (Homo sapiens, UniProt Q9Y2T6); assay: inhibition of LPI-stimulated GPR55 beta-arrestin translocation – imaging, U2OS, beta-arrestin-GFP, LPI agonist, primary screen (AID 2013); type: functional;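 also: antagonist potency measured as reduced agonist-driven arrestin aggregation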
Cannabinoid receptor 1 [14] = target: T4, Cannabinoid receptor 1 (Homo sapiens, UniProt P21554); assay: SAR analysis of antagonists of the Cannabinoid Receptor 1 using an Image-Based Assay - Set 2. [Related pubchem assays (depositor defined):AID2013, AID2026]; type: functional
[15] = target: T5, G-protein coupled receptor 35 (Homo sapiens, UniProt Q9HC97); assay: SAR analysis of Agonists of the GPR35 Receptor using an Image-Based Assay - Set 2. [Related pubchem assays (depositor defined):AID2013, AID2026]; type: functional
Cannabinoid receptor 2 [16] = target: T6, Cannabinoid receptor 2 (Homo sapiens, UniProt P34972); assay: SAR analysis of antagonists of the Cannabinoid Receptor 2 using an Image-Based Assay. [Related pubchem assays (depositor defined):AID2013, AID2026]; type: functional
Cannabinoid receptor 1 [17] = target: T4, Cannabinoid receptor 1; assay: SAR analysis of agonists of the Cannabinoid Receptor 1 using an Image-Based Assay - Set 2. [Related pubchem assays (depositor defined):AID2013, AID2026]; type: functional
[18] = target: T5, G-protein coupled receptor 35; assay: SAR analysis of Antagonists of the GPR35 Receptor using an Image-Based Assay - Set 3. [Related pubchem assays (depositor defined):AID2013, AID2026]; type: functional
[19] = target: T3, G-protein coupled receptor 55; assay: blockade of LPI-induced GPR55 arrestin translocation – imaging, U2OS, beta-arrestin-GFP, LPI agonist, set 2, SAR follow-up (AID 2820); type: functional
Cannabinoid receptor 2 [20] = target: T6, Cannabinoid receptor 2; assay: SAR analysis of agonists of the Cannabinoid Receptor 2 using an Image-Based Assay. [Related pubchem assays (depositor defined):AID2013, AID2026]; type: functional

T4 sequence (P21554 whole entry): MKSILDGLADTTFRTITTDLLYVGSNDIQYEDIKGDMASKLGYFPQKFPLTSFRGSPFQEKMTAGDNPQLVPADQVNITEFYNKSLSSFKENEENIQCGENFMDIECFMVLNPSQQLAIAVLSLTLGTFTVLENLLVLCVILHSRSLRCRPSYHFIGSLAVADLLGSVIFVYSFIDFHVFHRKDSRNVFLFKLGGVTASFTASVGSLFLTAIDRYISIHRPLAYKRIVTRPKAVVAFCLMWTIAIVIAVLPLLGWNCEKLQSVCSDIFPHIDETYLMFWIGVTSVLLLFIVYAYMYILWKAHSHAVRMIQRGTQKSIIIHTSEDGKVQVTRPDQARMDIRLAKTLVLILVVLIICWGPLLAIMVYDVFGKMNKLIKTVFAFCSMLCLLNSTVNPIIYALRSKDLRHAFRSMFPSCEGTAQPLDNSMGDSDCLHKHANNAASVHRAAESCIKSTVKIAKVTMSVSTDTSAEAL
T6 sequence (P34972 whole entry): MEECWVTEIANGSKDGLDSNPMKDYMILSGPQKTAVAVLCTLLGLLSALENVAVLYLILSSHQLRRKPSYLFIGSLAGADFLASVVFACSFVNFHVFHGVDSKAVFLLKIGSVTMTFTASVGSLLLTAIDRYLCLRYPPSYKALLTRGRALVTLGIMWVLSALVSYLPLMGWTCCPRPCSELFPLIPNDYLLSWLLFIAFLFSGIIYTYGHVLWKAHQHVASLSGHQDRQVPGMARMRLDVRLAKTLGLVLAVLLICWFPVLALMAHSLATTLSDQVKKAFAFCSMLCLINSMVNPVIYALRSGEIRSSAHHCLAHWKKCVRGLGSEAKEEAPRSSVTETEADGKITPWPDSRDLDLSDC
T3 sequence (Q9Y2T6 whole entry): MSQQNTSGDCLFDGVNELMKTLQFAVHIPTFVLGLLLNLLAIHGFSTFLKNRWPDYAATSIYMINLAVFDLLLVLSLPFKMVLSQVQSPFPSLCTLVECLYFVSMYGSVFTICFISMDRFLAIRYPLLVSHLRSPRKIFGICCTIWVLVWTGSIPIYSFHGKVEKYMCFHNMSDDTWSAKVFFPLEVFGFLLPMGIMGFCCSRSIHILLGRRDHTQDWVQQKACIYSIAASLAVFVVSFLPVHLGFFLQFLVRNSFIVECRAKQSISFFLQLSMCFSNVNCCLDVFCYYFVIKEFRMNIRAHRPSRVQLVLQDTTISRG
T5 sequence (Q9HC97 whole entry): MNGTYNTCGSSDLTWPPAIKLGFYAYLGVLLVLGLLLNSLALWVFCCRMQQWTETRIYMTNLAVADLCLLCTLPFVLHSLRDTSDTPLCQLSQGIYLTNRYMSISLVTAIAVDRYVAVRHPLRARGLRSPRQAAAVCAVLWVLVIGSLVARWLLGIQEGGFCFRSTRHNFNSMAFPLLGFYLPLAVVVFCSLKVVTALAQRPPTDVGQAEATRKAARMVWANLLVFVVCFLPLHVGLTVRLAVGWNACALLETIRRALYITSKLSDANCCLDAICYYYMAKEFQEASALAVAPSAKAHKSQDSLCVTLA
Sequence of Type-1 angiotensin II receptor (P30556 whole entry, the tested form may be a part): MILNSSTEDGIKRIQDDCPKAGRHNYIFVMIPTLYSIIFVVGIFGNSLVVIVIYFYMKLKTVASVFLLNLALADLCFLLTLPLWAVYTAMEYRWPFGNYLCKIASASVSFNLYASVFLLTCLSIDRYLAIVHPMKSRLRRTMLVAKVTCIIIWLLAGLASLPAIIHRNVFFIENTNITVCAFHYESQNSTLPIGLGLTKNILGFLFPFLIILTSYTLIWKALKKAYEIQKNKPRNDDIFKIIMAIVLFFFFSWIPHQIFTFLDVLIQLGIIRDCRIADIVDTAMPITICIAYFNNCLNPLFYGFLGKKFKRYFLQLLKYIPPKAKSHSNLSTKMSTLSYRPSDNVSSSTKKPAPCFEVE
Sequence of Glucose-6-phosphate 1-dehydrogenase (P11413 whole entry): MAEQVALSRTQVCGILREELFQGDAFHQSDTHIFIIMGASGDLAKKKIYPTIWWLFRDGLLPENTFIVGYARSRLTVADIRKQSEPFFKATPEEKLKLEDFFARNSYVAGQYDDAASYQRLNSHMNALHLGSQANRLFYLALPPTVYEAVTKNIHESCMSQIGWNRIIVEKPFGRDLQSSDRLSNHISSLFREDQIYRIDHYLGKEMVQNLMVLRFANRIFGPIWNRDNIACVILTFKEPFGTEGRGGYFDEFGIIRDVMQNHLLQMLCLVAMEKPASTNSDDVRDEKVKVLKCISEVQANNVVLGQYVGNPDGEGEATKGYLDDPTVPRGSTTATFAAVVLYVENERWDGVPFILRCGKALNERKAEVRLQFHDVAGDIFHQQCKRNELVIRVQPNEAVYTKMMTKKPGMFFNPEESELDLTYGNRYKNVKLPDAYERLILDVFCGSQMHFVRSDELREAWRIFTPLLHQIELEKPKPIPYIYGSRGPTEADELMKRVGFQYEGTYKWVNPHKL
Sequence of Sphingosine 1-phosphate receptor 4 (O95977 whole entry): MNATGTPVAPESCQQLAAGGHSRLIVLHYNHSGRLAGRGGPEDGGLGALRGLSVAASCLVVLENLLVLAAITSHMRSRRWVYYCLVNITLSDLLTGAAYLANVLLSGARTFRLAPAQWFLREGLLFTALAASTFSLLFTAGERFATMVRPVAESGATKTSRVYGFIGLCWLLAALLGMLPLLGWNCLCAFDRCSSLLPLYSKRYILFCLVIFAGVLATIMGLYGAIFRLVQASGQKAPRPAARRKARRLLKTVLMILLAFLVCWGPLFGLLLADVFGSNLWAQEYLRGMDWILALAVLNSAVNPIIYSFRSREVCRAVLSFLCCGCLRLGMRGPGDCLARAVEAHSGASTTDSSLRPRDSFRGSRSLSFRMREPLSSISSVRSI
Sequence of DNA dC->dU-editing enzyme APOBEC-3A (P31941 whole entry): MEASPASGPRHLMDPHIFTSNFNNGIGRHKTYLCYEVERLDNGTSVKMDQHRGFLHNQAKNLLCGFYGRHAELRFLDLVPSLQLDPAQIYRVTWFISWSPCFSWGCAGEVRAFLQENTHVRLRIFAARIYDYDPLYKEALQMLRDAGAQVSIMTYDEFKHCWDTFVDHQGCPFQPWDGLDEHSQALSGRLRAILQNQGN
Sequence of Phosphomannomutase 2 (O15305 whole entry): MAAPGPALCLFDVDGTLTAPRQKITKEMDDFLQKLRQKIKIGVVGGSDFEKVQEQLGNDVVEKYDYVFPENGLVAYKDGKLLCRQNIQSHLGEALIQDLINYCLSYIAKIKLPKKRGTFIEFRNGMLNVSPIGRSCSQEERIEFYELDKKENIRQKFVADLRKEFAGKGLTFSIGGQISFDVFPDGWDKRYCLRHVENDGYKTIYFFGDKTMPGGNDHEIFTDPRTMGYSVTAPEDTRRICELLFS
Sequence of Hexokinase (Q38C41 whole entry): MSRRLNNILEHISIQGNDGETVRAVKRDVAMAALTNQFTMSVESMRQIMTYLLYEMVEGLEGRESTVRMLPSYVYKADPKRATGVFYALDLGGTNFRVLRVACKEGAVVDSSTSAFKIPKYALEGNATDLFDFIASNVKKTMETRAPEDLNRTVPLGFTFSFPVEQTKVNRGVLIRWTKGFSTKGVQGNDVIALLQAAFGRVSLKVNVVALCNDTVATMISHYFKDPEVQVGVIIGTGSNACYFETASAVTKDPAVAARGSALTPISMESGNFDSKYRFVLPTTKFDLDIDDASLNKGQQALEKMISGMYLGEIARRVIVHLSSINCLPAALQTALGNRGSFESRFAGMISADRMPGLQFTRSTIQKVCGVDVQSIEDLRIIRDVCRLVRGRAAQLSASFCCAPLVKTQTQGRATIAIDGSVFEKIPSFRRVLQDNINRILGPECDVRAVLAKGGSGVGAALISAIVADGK
Sequence of DNA dC->dU-editing enzyme APOBEC-3G (Q9HC16 whole entry): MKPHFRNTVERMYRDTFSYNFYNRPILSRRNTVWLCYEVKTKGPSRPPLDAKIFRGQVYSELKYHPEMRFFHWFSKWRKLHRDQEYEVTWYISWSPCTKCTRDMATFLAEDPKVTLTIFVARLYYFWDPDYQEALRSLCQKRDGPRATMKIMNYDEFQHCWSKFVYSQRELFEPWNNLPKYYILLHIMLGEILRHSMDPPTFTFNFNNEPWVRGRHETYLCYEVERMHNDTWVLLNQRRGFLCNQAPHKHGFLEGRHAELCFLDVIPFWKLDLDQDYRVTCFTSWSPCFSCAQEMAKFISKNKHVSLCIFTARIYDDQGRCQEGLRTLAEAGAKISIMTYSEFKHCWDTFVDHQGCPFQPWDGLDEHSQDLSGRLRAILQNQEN
Sequence of Phosphoethanolamine/phosphocholine phosphatase (Q8TCT1 whole entry): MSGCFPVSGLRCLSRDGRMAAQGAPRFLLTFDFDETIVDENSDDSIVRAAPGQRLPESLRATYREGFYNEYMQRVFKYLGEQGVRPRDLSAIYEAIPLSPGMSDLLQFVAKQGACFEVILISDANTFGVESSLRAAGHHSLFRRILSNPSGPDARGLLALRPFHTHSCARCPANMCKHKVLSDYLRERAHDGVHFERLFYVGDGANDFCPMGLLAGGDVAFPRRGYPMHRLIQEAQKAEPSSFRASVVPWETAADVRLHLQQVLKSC

**Q.** With CCc1nnc(NC(=O)CSc2nc3cccnc3n2C2CCCCC2)s1 as the compound, how does the EC50 [1] read?
**A.** Its EC50 is 23.2 µM (active).

**Q.** What about the EC50 [2] of the same compound?
**A.** Its EC50 is > 120 µM (not active).

**Q.** And the EC50 [3]?
**A.** The EC50 was 13.3 µM (active).

**Q.** What about the EC50 [4] of the same compound?
**A.** The EC50 was > 100 µM (inactive).

**Q.** For Cc1ccc(C)c(-n2sc3ccc(F)cc3c2=O)c1, which IC50 [5] is on record?
**A.** The IC50 was > 100 µM (inactive).

**Q.** And the IC50 [6]?
**A.** Its IC50 is 11.3 µM (active).

**Q.** And the IC50 (Phosphomannomutase 2)?
**A.** The IC50 was 31.3 µM (active).

**Q.** What about the IC50 [7] of the same compound?
**A.** The IC50 was 7.43 µM (inactive).

**Q.** And the IC50 [8]?
**A.** The IC50 was 13.5 µM (active).

**Q.** What about the EC50 (T-cell) of the same compound?
**A.** Its EC50 is 3.62 µM (active).

**Q.** And the IC50 [9]?
**A.** Its IC50 is > 100 µM (inactive).

**Q.** What about the CC50 [10] of the same compound?
**A.** The CC50 was 67.5 µM (active).

**Q.** And the IC50 [11]?
**A.** Its IC50 is 34 µM (active).

**Q.** For O=c1c(Br)csn1-c1ccc(Br)cc1, which IC50 (Hexokinase) is on record?
**A.** Its IC50 is 11.1 µM (active).

**Q.** With Cc1ccc(OCCOc2ccccc2C(F)(F)F)c([N+](=O)[O-])n1 as the compound, how does the EC50 [12] read?
**A.** The EC50 was > 50 µM (inactive).

**Q.** With Cc1n[nH]c(-c2ccc(O)c(C)c2O)c1Oc1ccccc1 as the compound, how does the IC50 [13] read?
**A.** Its IC50 is 1.9 µM (active).

**Q.** And the IC50 (Cannabinoid receptor 1 [14])?
**A.** Its IC50 is 11.7 µM (inactive).

**Q.** What about the EC50 [15] of the same compound?
**A.** Its EC50 is > 32 µM (inactive).

**Q.** And the IC50 (Cannabinoid receptor 2 [16])?
**A.** Its IC50 is > 32 µM (inactive).

**Q.** What about the EC50 (Cannabinoid receptor 1 [17]) of the same compound?
**A.** Its EC50 is > 32 µM (inactive).

**Q.** And the IC50 [18]?
**A.** The IC50 was > 32 µM (inactive).

**Q.** And the IC50 [19]?
**A.** The IC50 was 0.854 µM (active).

**Q.** And the EC50 (Cannabinoid receptor 2 [20])?
**A.** The EC50 was > 32 µM (inactive).
